pIC50: −log10 of the molar value.

The source of these data is US20140228286A1, “SPECIFIC PDE4B-INHIBITORS FOR THE TREATMENT OF DIABETES MELLITUS” (BOEHRINGER INGELHEIM INTERNATIONAL GMBH, priority 2013, published 2014).

For the test, the target named is T1, PDE4B (Homo sapiens, UniProt Q07343).
T1 construct: active site fragment comprising the amino acids 152-484
T1 sequence (Q07343 324-656): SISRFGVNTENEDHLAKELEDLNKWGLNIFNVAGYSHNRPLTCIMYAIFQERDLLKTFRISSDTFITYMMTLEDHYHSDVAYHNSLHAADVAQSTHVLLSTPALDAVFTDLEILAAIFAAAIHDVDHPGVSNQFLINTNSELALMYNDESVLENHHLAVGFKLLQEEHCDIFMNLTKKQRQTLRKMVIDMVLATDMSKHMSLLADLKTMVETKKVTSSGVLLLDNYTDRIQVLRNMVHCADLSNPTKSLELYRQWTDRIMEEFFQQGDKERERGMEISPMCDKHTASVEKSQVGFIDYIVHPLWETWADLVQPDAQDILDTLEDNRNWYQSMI
Put plainly: PDE4B Scintillation Proximity (SPA) Assay. The format is biochemical. As to conditions: PDE4B active site fragment amino acids 152-484; [3H]cAMP; 30° C., one hour; read-out: Experimentally determined IC50-value for PDE4B inhibition. The text has this:
The IC50-values of the compounds of the invention (Examples 1.1 to 1.47) with respect to their PDE4B-inhibiting ability have been determined with a Scintillation Proximity (SPA) Assay (GE Healthcare, No. TRKQ7090). The Scintillation Proximity (SPA) Assay is based on the detection of the different affinities of the cyclic 3′-5′adenosine monophosphate (cAMP, low affinity) and the linear 5′-adenosine monophosphate (AMP, high affinity) to yttrium-silicate-scintillator beads. The cAMP-specific phosphodiesterase (PDE) PDE4B cleaves the 3′-phosphodiester bond of the tritium-labelled-[^3H]cAMP to the [^3H]5′-AMP. This [^3H]5′-AMP associates with the scintillator beads because of their higher affinity and causes scintillations (light flashes) which can be measured in a Wallac Microbeta Scintillation Counter.
10 μl of a [^3H]cAMP-solution (0.05 μCi in H2O, 10-30 Ci/mmol) are added to 89 μl of a PDE4B-enzyme-solution (active site fragment comprising the amino acids 152-484; 0.15-0.18 ng) in assay buffer (50 mM Tris HCl pH 7.5; 8.3 mM MgCl2; 1,7 mM ethylene glyclol tetraacetic acid (EGTA); 0.25 mg/ml bovine serum albumin (BSA)) and this mixture is incubated at 30° C. for one hour
a) without the compound to be tested (in the presence of 1 μl dimethylsulfoxide (DMSO), corresponding to 1% DMSO) and b) in the presence of the compound to be tested in a concentration of 125 μM, 25 μM, 5 μM, 1 μM, 200 nM, 40 nM, 8 nM, 1.6 nM, 0.32 nM, 0.064 nM, 0.0128 nM (dilution series in 5er-steps beginning from 125 μM until 0.0128 nM, in the presence of 1% DMSO).
After this incubation the reaction is stopped by the addition of 50 μl of bead-solution (500 mg beads/35 ml H2O, 18 mM zinc sulfate). In the following 45 minutes the beads have the opportunity to form a sediment. After that the scintillations are measured in the scintillation counter. If the tested compound is able to inhibit the enzymatic activity of the PDE4B-enzyme, less [^3H]AMP depending on the concentration of the tested compound is produced and less scintillations are measurable. […] The IC50-value stands for the compound concentration at which the PDE4B enzyme activity is inhibited to a half maximal value. Therefore the lower the IC50-value is the better is the PDE4B inhibition.
(In general: In a scintillation proximity assay essentially only radioactivity close to the scintillant gives light.)
As a reminder, the pIC50 is −log10 of the IC50, conventionally taken in molar units. Take `[O-][S+]1CCc2nc(N3CCC(Oc4ccncc4)CC3)nc(NC3CCOCC3)c21` (stereo not drawn) [Example 1.34, {5-oxo-2-[4-(pyridin-4-yloxy)-piperidin-1-yl]-6,7-dihydro-5H-5λ^4-thieno[3,2-d]pyrimidin-4-yl}-(tetrahydropyran-4-yl)-amine]: the pIC50 was 8.10. To `Cn1c(C2CCN(c3nc4c(c(NC5CCOCC5)n3)[S+]([O-])CC4)CC2)nc2cnccc21` (stereo not drawn) [Example 1.30, {2-[4-(1-methyl-1H-imidazo[4,5-c]pyridin-2-yl)-piperidin-1-yl]-5-oxo-6,7-dihydro-5H-5λ^4-thieno[3,2-d]pyrimidin-4-yl}-(tetrahydropyran-4-yl)-amine] belongs 7.48. To `Cn1nc(C2CCN(c3nc4c(c(NC5CCOCC5)n3)[S+]([O-])CC4)CC2)cc1-c1ccco1` (stereo not drawn) [Example 1.27] belongs 7.68; to `CN1C[C@@H](Nc2nc(N3CCC(C#N)(c4ccccc4)CC3)nc3c2[S+]([O-])CC3)CCC1=O` (stereo partly drawn) [Example 1.10, 1-[4-((S)-1-methyl-6-oxopiperidin-3-ylamino)-5-oxo-6,7-dihydro-5H-5λ^4-thieno[3,2-d]pyrimidin-2-yl]-4-phenylpiperidin-4-carbonitrile], 8.46; to `[O-][S+]1CCc2nc(N3CCC(c4ccncc4)CC3)nc(Nc3cccc(F)c3)c21` (stereo not drawn) [Example 1.12, (3-fluorophenyl)-[5-oxo-2-(3,4,5,6-tetrahydro-2H-[4,4′]bipyridinyl-1-yl)-6,7-dihydro-5H-5λ^4-thieno[3,2-d]pyrimidin-4-yl]-amine], under 5.00. To `CN1C[C@@H](Nc2nc(N3CCC(c4ccc(Cl)cc4)CC3)nc3c2[S+]([O-])CC3)CCC1=O` (stereo partly drawn) [Example 1.5, (S)-5-{2-[4-(4-chlorophenyl)-piperidin-1-yl]-5-oxo-6,7-dihydro-5H-5λ^4-thieno[3,2-d]pyrimidin-4-ylamino}-1-methylpiperidin-2-one] belongs 9.22; to `[O-][S+]1CCc2nc(N3CCC(O)(c4ccc(Cl)cc4)CC3)nc(NC3CCOCC3)c21` (stereo not drawn) [Example 1.41, 4-(4-chlorophenyl)-1-[5-oxo-4-(tetrahydropyran-4-ylamino)-6,7-dihydro-5H-5λ^4-thieno[3,2-d]pyrimidin-2-yl]-piperidin-4-ol], 8.17; to `CN1C(=O)Nc2ccccc2C12CCN(c1nc3c(c(NC4CCOCC4)n1)[S+]([O-])CC3)CC2` (stereo not drawn) [Example 1.11, 3′-methyl-1-(4-(tetrahydro-2H-pyran-4-ylamino)-5-oxo-6,7-dihydro-5H-5λ^4-thieno[3,2-d]pyrimidin-2-yl)-1′H-spiro[piperidin-4,4′-quinazolin]-2′(3′H)-one], under 5.00.

On to `CN1C(=O)Nc2ccccc2C12CCN(c1nc3c(c(NC4(CO)CC4)n1)[S+]([O-])CC3)CC2` (stereo not drawn) [Example 1.7, 1-(4-(1-hydroxymethylcyclopropylamino)-5-oxo-6,7-dihydro-5H-5λ^4-thieno[3,2-d]pyrimidin-2-yl)-3′-methyl-1′H-spiro[piperidin-4,4′-quinazolin]-2′(3′H)-one], for which the pIC50 was under 5.00. To `CCc1[nH]c2ccc(F)cc2c1C1CCN(c2nc3c(c(Nc4cccc(F)c4)n2)[S+]([O-])CC3)CC1` (stereo not drawn) [Example 1.13, {2-[4-(2-ethyl-5-fluoro-1H-indol-3-yl)-piperidin-1-yl]-5-oxo-6,7-dihydro-5H-5λ^4-thieno[3,2-d]pyrimidin-4-yl}-(3-fluorophenyl)-amine] belongs under 5.00; to `[O-][S+]1CCc2nc(N3CCC(c4ccc(Cl)cc4)CC3)nc(NC3(CO)CC3)c21` (stereo not drawn) [Example 1.2, (1-{2-[4-(4-chlorophenyl)-piperidin-1-yl]-5-oxo-6,7-dihydro-5H-5λ^4-thieno[3,2-d]pyrimidin-4-ylamino}-cyclopropyl)-methanol], 8.47. With `Cc1oc(C2CCN(c3nc4c(c(NC5(CO)CC5)n3)[S+]([O-])CC4)CC2)nc1-c1ccccc1` (stereo not drawn) [Example 1.37, (1-{2-[4-(5-methyl-4-phenyloxazol-2-yl)-piperidin-1-yl]-5-oxo-6,7-dihydro-5H-5λ^4-thieno[3,2-d]pyrimidin-4-ylamino}-cyclopropyl)-methanol] the figure was 8.46. To `N#Cc1ccc(OC2CCN(c3nc4c(c(NC5(CO)CC5)n3)[S+]([O-])CC4)CC2)cc1` (stereo not drawn) [Example 1.43, 4-{1-[4-(1-hydroxymethylcyclopropylamino)-5-oxo-6,7-dihydro-5H-5λ^4-thieno[3,2-d]pyrimidin-2-yl]-piperidin-4-yloxy}-benzonitrile] belongs 8.46; to `[O-][S+]1CCc2nc(N3CCC(c4ccc(F)cc4F)CC3)nc(NC3CCOCC3)c21` (stereo not drawn) [Example 1.15, {2-[4-(2,4-difluorophenyl)-piperidin-1-yl]-5-oxo-6,7-dihydro-5H-5λ^4-thieno[3,2-d]pyrimidin-4-yl}-(tetrahydropyran-4-yl)-amine], 7.81. With `[O-][S+]1CCc2nc(N3CCC(c4cc(-c5ccco5)n[nH]4)CC3)nc(NC3CCOCC3)c21` (stereo not drawn) [Example 1.19, {2-[4-(5-furan-2-yl-2H-pyrazol-3-yl)-piperidin-1-yl]-5-oxo-6,7-dihydro-5H-5λ^4-thieno[3,2-d]pyrimidin-4-yl}-(tetrahydropyran-4-yl)-amine], the pIC50 is 8.46. With `[O-][S+]1CCc2nc(N3CCC(c4noc5ccc(F)cc45)CC3)nc(NC3(CO)CC3)c21` (stereo not drawn) [Example 1.18, (1-{2-[4-(5-fluorobenzo[d]isoxazol-3-yl)-piperidin-1-yl]-5-oxo-6,7-dihydro-5H-5λ^4-thieno[3,2-d]pyrimidin-4-ylamino}-cyclopropyl)-methanol] the figure was 8.72. To `Cn1cc(C2CCN(c3nc4c(c(NC5CCOCC5)n3)[S+]([O-])CC4)CC2)c2cc(C(C)(C)C)ccc21` (stereo not drawn) [Example 1.26, {2-[4-(5-tert-butyl-1-methyl-1H-indol-3-yl)-piperidin-1-yl]-5-oxo-6,7-dihydro-5H-5λ^4-thieno[3,2-d]pyrimidin-4-yl}-(tetrahydropyran-4-yl)-amine] belongs 7.42; to `[O-][S+]1CCc2nc(N3CCC(CO)(c4ccc(Cl)cc4)CC3)nc(NC3CCOCC3)c21` (stereo not drawn) [Example 1.39, {4-(4-chlorophenyl)-1-[5-oxo-4-(tetrahydropyran-4-ylamino)-6,7-dihydro-5H-5λ^4-thieno[3,2-d]pyrimidin-2-yl]-piperidin-4-yl}-methanol], 8.74; to `CN1C[C@@H](Nc2nc(N3CCC(c4nc(-c5ccccc5)c(-c5ccccc5)o4)CC3)nc3c2[S+]([O-])CC3)CCC1=O` (stereo partly drawn) [Example 1.38, (S)-5-{2-[4-(4,5-diphenyloxazol-2-yl)-piperidin-1-yl]-5-oxo-6,7-dihydro-5H-5λ^4-thieno[3,2-d]pyrimidin-4-ylamino}-1-methylpiperidin-2-one], 9.70. Consider `COCC(=O)NCC1(c2ccccc2)CCN(c2nc3c(c(NC4CCOCC4)n2)[S+]([O-])CC3)CC1` (stereo not drawn) [Example 1.31, 2-methoxy-N-{1-[5-oxo-4-(tetrahydropyran-4-ylamino)-6,7-dihydro-5H-5λ^4-thieno[3,2-d]pyrimidin-2-yl]-4-phenylpiperidin-4-ylmethyl}-acetamide], for which the pIC50 is 8.24.

For the compound `Cc1oc(C2CCN(c3nc4c(c(N[C@H]5CCC(=O)N(C)C5)n3)[S+]([O-])CC4)CC2)nc1-c1ccccc1` (stereo partly drawn) [Example 1.36, (S)-1-methyl-5-{2-[4-(5-methyl-4-phenyloxazol-2-yl)-piperidin-1-yl]-5-oxo-6,7-dihydro-5H-5λ^4-thieno[3,2-d]pyrimidin-4-ylamino}-piperidin-2-one], the pIC50 is 9.40. With `CN1C[C@@H](Nc2nc(N3CCC(Oc4ccc(F)cc4)CC3)nc3c2[S+]([O-])CC3)CCC1=O` (stereo partly drawn) [Example 1.22, (S)-5-{2-[4-(4-fluorophenoxy)-piperidin-1-yl]-5-oxo-6,7-dihydro-5H-5λ4-thieno[3,2-d]pyrimidin-4-ylamino}-1-methylpiperidin-2-one] the figure was 8.64. Take `CN(C(=O)c1ccc(OC2CCN(c3nc4c(c(NC5CCOCC5)n3)[S+]([O-])CC4)CC2)cc1)C1CC1` (stereo not drawn) [Example 1.33, N-cyclopropyl-N-methyl-4-{1-[5-oxo-4-(tetrahydropyran-4-ylamino)-6,7-dihydro-5H-5λ^4-thieno[3,2-d]pyrimidin-2-yl]-piperidin-4-yloxy}-benzamide]: the pIC50 is 8.12.

As for `CC(C)(O)C1(Nc2nc(N3CCC(c4ccc(Cl)cc4)CC3)nc3c2[S+]([O-])CC3)CC1` (stereo not drawn) [Example 1.25, 2-(1-{2-[4-(4-chlorophenyl)-piperidin-1-yl]-5-oxo-6,7-dihydro-5H-5λ^4-thieno[3,2-d]pyrimidin-4-ylamino}-cyclopropyl)-propan-2-ol], the pIC50 was 8.74.
